Test results taken from US20240279520A1, “FLUORINE SUBSTITUTED ETHERS AND COMPOSITIONS, METHODS AND USES INCLUDING SAME” (Honeywell International Inc., priority 2022, published 2024).

Key:
Format in all cases: physicochemical
[1] = Boiling point of fluoroethers; settings: for Boiling point: Table 2; for Bp: Table 5
Density of fluoroethers = settings: Table 2
[2] = Experimental dielectric property measurements, Agilent 85070 Dielectric Probe; settings: for Experimental Dk at 1 GHz / Experimental Loss Tangent at 1 GHZ: ambient pressure, approximately 23° C.; for Dielectric Constant (20 GHz): room temperature
Experimental: “Dielectric Constant” means the dielectric constant as measured at room temperature at 20 giga hertz (GHz).
Experimental dielectric property measurements were made on all liquids using the Agilent 85070 Dielectric Probe. All measurements were made at ambient pressure and room temperature (approximately 23° C.). Prior to making measurements, the system was calibrated from 1 GHz to 20 GHz with an open circuit, a short circuit, and DI water (@22.4° C.) standard. The result of the calibration is shown in the Table 5 below for DI H2O, and is consistent with DI water at 22.4° C. The accuracy of the probe is given as: Dielectric constant, er′=er′+/−0.05|er*| with er″=er″+/−0.05|er*| and (loss=er″/er′).

Row | SMILES | Boiling point [1] [°C] | Bp [1] [°C] | Density (Density of fluoroethers) | Experimental Dk at 1 GHz [2] | Experimental Loss Tangent at 1 GHZ [2] | Dielectric Constant (20 GHz) [2]
1 | FC(F)OCC(F)(F)C(F)F [Compound 1, 3-(difluoromethoxy)-1,1,2,2-tetrafluoropropane] | 76 | 76 | 1.3-1.7 | 2.94 | 0.036 | 4.0
2 | FC(F)OCC(F)(F)C(F)(F)F [Compound 2, 3-(difluoromethoxy)-1,1,1,2,2-pentafluoropropane] | 46 | 46 | 1.3-1.7 | 5.21 | 0.038 | 3.4
3 | FC(F)OC(C(F)(F)F)C(F)(F)F [Compound 3, 2-(difluoromethoxy)-1,1,1,3,3,3-hexafluoropropane] | 41 | 41 | 1.3-1.7 |  |  | <5
4 | FC(F)OCC(F)(F)C(F)(F)C(F)(F)F [Compound 4, 4-(difluoromethoxy)-1,1,1,2,2,3,3-heptafluorobutane] | 69 | 69 | 1.3-1.7 | 4.51 | 0.054 | 2.8
5 | O [DI Water, reference compound] |  | 100 |  | 79.15 | 0.052 | 
